Legend:
Assay type in all cases: functional
[1] = tested on: Rattus norvegicus; assay: Antihyperlipidemic activity in high fat diet fed Sprague-Dawley Rattus norvegicus (rat) assessed as decrease in serum VLDL level at 1 mg/kg, po daily for 7 days measured on day 8 relative to untreated control; set-up: scale not given: the % may be the effect or the level left
[2] = tested on: Rattus norvegicus; assay: Antihyperlipidemic activity in high fat diet fed Sprague-Dawley Rattus norvegicus (rat) assessed as decrease in serum triglyceride level at 1 mg/kg, po daily for 7 days measured on day 8 relative to untreated control; set-up: scale not given: the % may be the effect or the level left
[3] = tested on: Rattus norvegicus; assay: Antihyperlipidemic activity in high fat diet fed Sprague-Dawley Rattus norvegicus (rat) assessed as coronary risk index at 1 mg/kg, po daily for 7 days measured on day 8 (reference value: 5.21 +/-1.76 no unit)
[4] = tested on: Rattus norvegicus; assay: Antihyperlipidemic activity in high fat diet fed Sprague-Dawley Rattus norvegicus (rat) assessed as atherogenic index at 1 mg/kg, po daily for 7 days measured on day 8 (reference value: 4.15 +/-0.23 no unit)
[5] = tested on: Rattus norvegicus; assay: Antihyperlipidemic activity in high fat diet fed Sprague-Dawley Rattus norvegicus (rat) assessed as increase in serum HDL level at 1 mg/kg, po daily for 7 days measured on day 8 relative to untreated control
[6] = tested on: Rattus norvegicus; assay: Antihyperlipidemic activity in high fat diet fed Sprague-Dawley Rattus norvegicus (rat) assessed as decrease in serum LDL level at 1 mg/kg, po daily for 7 days measured on day 8 relative to untreated control; set-up: scale not given: the % may be the effect or the level left
[7] = tested on: Rattus norvegicus; assay: Antihyperlipidemic activity in high fat diet fed Sprague-Dawley Rattus norvegicus (rat) assessed as decrease in serum total cholesterol level at 1 mg/kg, po daily for 7 days measured on day 8 relative to untreated control; set-up: scale not given: the % may be the effect or the level left
[8] = tested on: Rattus norvegicus; assay: Antihyperlipidemic activity in high fat diet fed Sprague-Dawley Rattus norvegicus (rat) assessed as decrease in serum VLDL level at 50 mg/kg, po daily for 7 days measured on day 8 relative to untreated control; set-up: scale not given: the % may be the effect or the level left
[9] = tested on: Rattus norvegicus; assay: Antihyperlipidemic activity in high fat diet fed Sprague-Dawley Rattus norvegicus (rat) assessed as decrease in serum triglyceride level at 50 mg/kg, po daily for 7 days measured on day 8 relative to untreated control; set-up: scale not given: the % may be the effect or the level left
[10] = tested on: Rattus norvegicus; assay: Antihyperlipidemic activity in high fat diet fed Sprague-Dawley Rattus norvegicus (rat) assessed as atherogenic index at 50 mg/kg, po daily for 7 days measured on day 8 (reference value: 4.15 +/-0.23 no unit)
[11] = tested on: Rattus norvegicus; assay: Antihyperlipidemic activity in high fat diet fed Sprague-Dawley Rattus norvegicus (rat) assessed as decrease in serum LDL level at 50 mg/kg, po daily for 7 days measured on day 8 relative to untreated control; set-up: scale not given: the % may be the effect or the level left
[12] = tested on: Rattus norvegicus; assay: Antihyperlipidemic activity in high fat diet fed Sprague-Dawley Rattus norvegicus (rat) assessed as coronary risk index at 50 mg/kg, po daily for 7 days measured on day 8 (reference value: 5.21 +/-1.76 no unit)
[13] = tested on: Rattus norvegicus; assay: Antihyperlipidemic activity in high fat diet fed Sprague-Dawley Rattus norvegicus (rat) assessed as increase in serum HDL level at 50 mg/kg, po daily for 7 days measured on day 8 relative to untreated control
[14] = tested on: Rattus norvegicus; assay: Antihyperlipidemic activity in high fat diet fed Sprague-Dawley Rattus norvegicus (rat) assessed as decrease in serum total cholesterol level at 50 mg/kg, po daily for 7 days measured on day 8 relative to untreated control; set-up: scale not given: the % may be the effect or the level left

SMILES | Activity [1] [%] | Activity [2] [%] | Activity [3] | AI [4] | Activity [5] [%] | Activity [6] [%] | Activity [7] [%] | Activity [8] [%] | Activity [9] [%] | AI [10] | Activity [11] [%] | Activity [12] | Activity [13] [%] | Activity [14] [%]
O=C1[C@H](CC[C@H](O)c2ccc(F)cc2)[C@@H](c2ccc(O)cc2)N1c1ccc(F)cc1 [EZETIMIBE] | 52.22 | 52.23 | 2.01 | 0.58 | 74.96 | 75.41 | 47.57 |  |  |  |  |  |  | 
O=c1[nH]c(CF)nc2sc3c(c12)CCCC3 |  |  |  |  |  |  |  | 50.71 | 50.71 | 0.96 | 65.82 | 2.39 | 58.27 | 40.44
Cc1sc2nc(CF)[nH]c(=O)c2c1-c1ccccc1 |  |  |  |  |  |  |  | 39.77 | 39.74 | 1.51 | 48.7 | 3.18 | 41.31 | 33.18
O=c1[nH]c(CF)nc2ccccc12 |  |  |  |  |  |  |  | 46.8 | 46.19 | 1.2 | 57.31 | 2.75 | 52.4 | 38.24
Cc1sc2nc(CF)[nH]c(=O)c2c1C |  |  |  |  |  |  |  | 37.83 | 37.8 | 1.46 | 45.91 | 3.14 | 44.68 | 32.48
COc1cc2nc(CF)[nH]c(=O)c2cc1OC |  |  |  |  |  |  |  | 45.85 | 45.14 | 1.53 | 40.26 | 3.16 | 62.44 | 26.27
O=c1[nH]c(CF)nc2scc(-c3ccc(Cl)cc3)c12 |  |  |  |  |  |  |  | 51.91 | 51.91 | 0.63 | 72.47 | 2.05 | 79.63 | 44.99
CCOC(=O)C1=C(C)C2C(=O)N=C(CF)N=C2S1 (stereo not drawn) |  |  |  |  |  |  |  | 57.76 | 57.77 | 0.31 | 86.92 | 1.69 | 73.48 | 56.19
O=c1[nH]c(CF)nc2scc(-c3ccccc3)c12 |  |  |  |  |  |  |  | 49.37 | 49.36 | 1.13 | 56.47 | 2.63 | 46.43 | 37.45
